Assay results reported in publication PMC8167039, “A Comparative Study of Human and Zebrafish Pregnane X Receptor Activities of Pesticides and Steroids Using In Vitro Reporter Gene Assays” (Frontiers in Endocrinology, 2021).
Where two headings read alike, the source gives them in different places.

What was measured:
hPXR = molecular target: T1, hPXR (Homo sapiens, UniProt O75469); experiment: HG5LN Gal4-hPXR luciferase reporter gene assay, agonism
T1 sequence (O75469 146-433 limits assumed): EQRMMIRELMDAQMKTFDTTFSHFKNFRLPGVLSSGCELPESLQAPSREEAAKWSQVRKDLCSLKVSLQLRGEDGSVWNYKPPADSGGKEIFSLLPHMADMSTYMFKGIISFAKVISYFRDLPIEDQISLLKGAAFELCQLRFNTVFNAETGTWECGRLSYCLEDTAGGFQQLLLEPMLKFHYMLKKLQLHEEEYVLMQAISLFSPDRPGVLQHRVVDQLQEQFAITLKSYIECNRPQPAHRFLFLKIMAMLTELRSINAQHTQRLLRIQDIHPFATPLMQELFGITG
Method: (§1) The cell lines used in this study are listed in Supplementary Table 3 . The HG5LN, HG5LN Gal4-hPXR and HG5LN Gal4-zfPXR cell lines were previously described ([19]). Briefly, HeLa cells stably transfected with the GAL4RE5-βGlobin-Luc-SVNeo plasmid (HG5LN cell line) ([15]). HG5LN cells were stably transfected with the pSG5-GAL4(DBD)-hPXR(LBD)-puro or pSG5-GAL4(DBD)-zfPXR(LBD)-puro plasmids.
(§2) HG5LN cells were cultured in Dulbecco’s Modified Eagle Medium: Nutrient Mixture F-12 (D-MEM/F-12) containing phenol red and 1 g/L glucose and supplemented with 5% fetal bovine serum, 100 units/mL of penicillin and 100 µg/mL of streptomycin supplemented with 1 mg/mL geneticin in a 5% CO2 humidified atmosphere at 37°C. HG5LN GAL4-hPXR and GAL4-zfPXR were cultured in the same culture medium supplemented with 0.5 µg/mL puromycin.
(§3) The ability of chemicals to modulate the hPXR and zfPXR was investigated in HG5LN, HG5LN-hPXR, HG5LN-zfPXR, and ZFL-zfPXR cell lines after exposure to serial dilutions of the compounds and measurement of luciferase activity. […] Briefly, cells were seeded in 96-well white opaque flat bottom microplates at 0.5 10^5 cells per well in culture medium. […] Cells were then exposed to a concentration range of the compounds by using an automated workstation (Biomek 3000, Beckman Coulter). The final concentration of DMSO in the well never exceeds 0.1% (v/v). After 16h of exposure, medium was removed and 50 µL of test medium containing 0.3 mM D-luciferin were added per well. After 5 min, the production of light was assessed in living cells using microplate reader (MicroBeta, PerkinElmer SAS, Courtabœuf, France).
(§4) In the transactivation assay, each compound was tested at various concentrations in three independent experiments at least. For each experiment, tests were performed in quadruplicates for each concentration, and data are expressed by means values with standard deviations. […] This allowed to determine EC50 and IC50 values of tested chemicals.

zfPXR [1] = molecular target: T2, zfPXR (Danio rerio, UniProt A5WYG8); experiment: HG5LN Gal4-zfPXR luciferase reporter gene assay, antagonism (coexposure with clotrimazole); assay type: cell-based, zebrafish
T2 sequence (A5WYG8 entry or part of it): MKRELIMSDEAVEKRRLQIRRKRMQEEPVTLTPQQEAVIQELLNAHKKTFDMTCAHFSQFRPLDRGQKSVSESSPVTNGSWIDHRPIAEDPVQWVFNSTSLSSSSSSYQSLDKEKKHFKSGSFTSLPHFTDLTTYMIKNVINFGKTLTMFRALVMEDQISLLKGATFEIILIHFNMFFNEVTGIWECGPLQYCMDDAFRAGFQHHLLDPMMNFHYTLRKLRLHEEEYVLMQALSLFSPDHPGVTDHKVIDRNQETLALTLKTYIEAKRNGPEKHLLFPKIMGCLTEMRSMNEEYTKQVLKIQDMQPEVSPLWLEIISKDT
Method: as §1, §2, §3, §4

zfPXR [2] = molecular target: T2, zfPXR; experiment: HG5LN Gal4-zfPXR luciferase reporter gene assay, agonism; assay type: cell-based, zebrafish; design: Emax: dose or concentration left out as unconfirmed; settings: for effect on zfPXR transcriptional activity (in words): HG5LN Gal-zfPXR cells; for zfPXR agonism Max: HG5LN-zfPXR, % of maximal induced by 1 µM clotrimazole, DMSO 28 ± 1.7
Method: as §1, §2, §3, §4

[3] = HG5LN-hPXR, maximal activity at 10 µM, % of maximal induced by 3 µM SR 12813, DMSO 19 ± 6
[4] = HG5LN, read-out: zfPXR antagonism Min
[5] = HG5LN, read-out: zfPXR agonism Max
[6] = HG5LN-zfPXR cells, 16h exposure, n.a. = not active, read-out: zfPXR agonism EC50
[7] = read-out: hPXR agonism EC50, HG5LN-hPXR cells, 16h exposure, n.a. = not active
[8] = compounds marked *, not tested above 3 µM (clotrimazole: 1 µM)

| Structure (SMILES) | EC50 (hPXR) [µM] | hPXR agonism Max (hPXR; [3]) [%] | hPXR agonism Max (hPXR) [%] | EC50 (zfPXR [2]) [µM] | further results |
| --- | --- | --- | --- | --- | --- |
| CC1(C)[C@H](C(=O)O[C@H](C#N)c2cccc(Oc3ccccc3)c2)[C@@H]1/C=C(\Cl)C(F)(F)F (racemic) [λ-Cyhalothrin] | 1.7 ± 0.2 | 107 | – | – | IC50 (zfPXR [1]): 6.8 ± 1 µM; remaining activity at 10 µM (zfPXR [1]; [4]): 45% |
| CC1(C)C(C=C(Cl)Cl)C1C(=O)OC(C#N)c1cccc(Oc2ccccc2)c1 (stereo not shown) [Cypermethrin] | – | – | – | – | IC50 (zfPXR [1]): 5 ± 0.3 µM; remaining activity at 10 µM (zfPXR [1]; [4]): 31% |
| C[C@@H]1C[C@H]2[C@@H]3CCC4=CC(=O)C=C[C@]4(C)[C@@]3(F)[C@@H](O)C[C@]2(C)[C@@]1(O)C(=O)CO [Dexamethasone, reference compound] | – | – | – | – | effect on hPXR transcriptional activity (in words) (hPXR): no effect; effect on zfPXR transcriptional activity (in words) (zfPXR [2]): no effect; effect on zfPXR transcriptional activity (in words) (zfPXR [2]; listed as dexamethasone): do not modulate |
| COC(=O)C(C)Oc1ccc(Oc2ccc(Cl)cc2Cl)cc1 (stereo not shown) [Diclofop-methyl] | – | – | – | – | remaining activity at 10 µM (zfPXR [1]; HG5LN; read-out: zfPXR antagonism Min): 65% |
| ClC1=C(Cl)[C@]2(Cl)[C@@H]3[C@@H]4C[C@@H]([C@H]5O[C@@H]45)[C@@H]3[C@@]1(Cl)C2(Cl)Cl [Dieldrin] | 9.2 ± 1.4 | – | 62 | – | IC50 (zfPXR [1]): 19 ± 8.8 µM |
| C[C@]12CCC(=O)C=C1[C@@H]1C[C@@H]1[C@H]1[C@@H]3[C@@H]4C[C@@H]4[C@@]4(CCC(=O)O4)[C@@]3(C)CC[C@@H]12 [Drospirenone, reference compound] | – | 44 | – | – | remaining activity at 10 µM (zfPXR [1]; [4]): 52%; IC50 (zfPXR [1]; read-out: zfPXR antagonism IC50): 3.6 ± 0.4 µM |
| O=S1OCC2C(CO1)C1(Cl)C(Cl)=C(Cl)C2(Cl)C1(Cl)Cl (stereo not shown) [Endosulfan] | 5.7 ± 0.4 | 72 | – | 11 ± 1.5 | Emax (zfPXR [2]; [5]): 57% |
| ClC1=C(Cl)C2(Cl)C3C4CC(C5OC45)C3C1(Cl)C2(Cl)Cl (stereo not shown) [Endrin] | 6.9 ± 1.2 | – | 66 | 14 ± 1.2 | – |
| CCCSP(=O)(OCC)SCCC [Ethoprophos] | – | 33 | – | – | Emax (zfPXR [2]; [5]): 38% |
| C#C[C@]1(O)CC[C@H]2[C@@H]3CCC4=CC(=O)CC[C@@H]4[C@H]3C(=C)C[C@@]21CC [Etonogestrel, reference compound] | 24 ± 4.6 | – | – | – | EC50 (zfPXR [2]; [6]): 2.3 ± 0.2 µM; Emax at 10 µM (zfPXR [2]; [5]): 90% |
| CCOP(=O)(NC(C)C)Oc1ccc(SC)c(C)c1 (stereo not shown) [Fenamiphos] | – | – | 76 | 0.7 ± 0.21 | zfPXR agonism Max (zfPXR [2]; maximal activity at 10 µM): 103% |
| OC(c1ccc(Cl)cc1)(c1cncnc1)c1ccccc1Cl (stereo not shown) [Fenarimol] | 13 ± 2.2 | 56 | – | – | IC50 (zfPXR [1]): 24 ± 7.1 µM; remaining activity at 10 µM (zfPXR [1]; [4]): 66% |
| ClC1=C(Cl)[C@]2(Cl)[C@@H]3[C@@H](Cl)[C@@H]4O[C@@H]4[C@@H]3[C@@]1(Cl)C2(Cl)Cl [Heptachlor endo-epoxide] | – | – | 69 | – | EC50 (hPXR; [7]): 3.4 ± 0.7 µM; EC50 (zfPXR [2]; [6]): 2 ± 0.9 µM; zfPXR agonism Max (zfPXR [2]; [8]): 32% |
| ClC1=C(Cl)[C@]2(Cl)[C@@H]3[C@@H](Cl)[C@H]4O[C@H]4[C@@H]3[C@@]1(Cl)C2(Cl)Cl [Heptachlor exo-epoxide] | – | – | 85 | – | EC50 (hPXR; [7]): 1.9 ± 0.1 µM; EC50 (zfPXR [2]; [6]): 1.4 ± 0.04 µM; zfPXR agonism Max (zfPXR [2]; [8]): 76% |
| ClC1=C(Cl)C2(Cl)C3C(Cl)C=CC3C1(Cl)C2(Cl)Cl (stereo not shown) [Heptachlor] | – | 43 | – | 7.4 ± 1.8 | Emax (zfPXR [2]; [5]): 44% |
| C=CCOC(Cn1ccnc1)c1ccc(Cl)cc1Cl (stereo not shown) [Imazalil] | 10 ± 1.4 | – | – | 9.8 ± 2.6 | hPXR agonism Max (hPXR; HG5LN-hPXR, compounds marked *, not tested above 3 µM (clotrimazole, SPA70: 1 µM), % of maximal induced by 3 µM SR 12813, DMSO 19 ± 6): 39% |
| Cl[C@H]1[C@H](Cl)[C@@H](Cl)[C@@H](Cl)[C@H](Cl)[C@H]1Cl [Lindane] | 10 ± 1.8 | – | 62 | 14 ± 0.9 | – |
